Drawing on PubChem BioAssay AID463074 (Broad Institute, 2010), this text covers AC50 for 90 compounds.

Activity calls are given as the source filed them.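 The calls were made as follows: active = AC50 no more than tenfold above the top dose tested, or full inhibition at every dose with a flat fit (cut at about 19 µM in these data); inconclusive = flat curve fit with inhibition between 30% and 70%, or poor fit; inactive = AC50 more than tenfold above the top dose tested.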 Residues, ends and D or L forms follow the SMILES beside them. *: point of attachment. Boc = CC(C)(C)OC(=O)*; Bn = c1ccc(C*)cc1 Some results are limits rather than exact numbers.

This assay concerns HMLE_sh_eGFP viability, CellTiter-Glo luminescence, 72 h. Kind of assay: viability loss of HMLE_sh_eGFP cells – cell-based, luminescence, counter-screen for HMLE_sh_ECad selective toxicity project, dose response (AID 463074).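 Also: counterscreen control line to flag general toxicity for the HMLE_sh_ECad screen; potency for loss of viability as luminescence drops below DMSO wells.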
Regarding `CCOc1cc(NC(=O)c2ccccn2)c(OCC)cc1NC(=O)c1ccccc1`, the AC50 is > 19.5 µM (inactive).

With `COc1ccc(-c2sc3ccccc3c2C#CCCO)cc1`, the AC50 was 6.5 µM.

Turning to `COc1cc(Cl)c(NC2=CC(=O)C(=O)c3ccccc32)c(OC)c1`, the AC50 is 3.57 µM.

Regarding `Cc1sc2ncnc(N3CCC(C(=O)N(C)CC(=O)Nc4ccc(Cl)c(C(F)(F)F)c4)CC3)c2c1C`, the AC50 was 3.93 µM.

With `CCCCCCOc1ccc(OC(=O)c2ccncc2)cc1`, the AC50 is 5.43 µM.

With `FC(F)(F)c1nnc(-c2ccccc2)nc1Sc1ccc(Cl)cc1`, the AC50 is 6.48 µM.

For the compound `Cc1ccc(/C=C\c2nccc3c2[nH]c2ccccc23)cc1`, the AC50 was 13.2 µM.

Take `CC(C)C[C@H](CO)N(Cc1ccccc1)S(=O)(=O)N(Cc1ccccc1)[C@@H](CO)CC(C)C`: the AC50 was 3.49 µM.

Consider `CCOC(=O)Nc1ccc2nc(Sc3ccc(Cl)cc3)sc2c1`, for which the AC50 is 2.97 µM.

`COc1ccccc1/C=C/C1(C(=O)NC2CCCC2)CC(=O)N1c1ccc(F)cc1` (stereo not given): the AC50 was 10.1 µM.

With `COc1cc(/C=C/c2ccc3cccc(OC)c3n2)c(OC(C)=O)c([N+](=O)[O-])c1`, the concentration at half-maximal activity (AC50) is 16.2 µM.

As for `CCSc1ncc(/C=N/Nc2ccc(Cl)cc2)n1C`, the AC50 was 6.75 µM.

`COc1ccc(CCn2c(C3CCCCC3)nc3c(c(=O)c4ccccc4n3C)c2=O)cc1`: the AC50 was 5.17 µM.

Regarding `COc1cc(CNC(C)(C)CO)cc(Br)c1OCc1ccc(Cl)cc1Cl`, the AC50 was 6.07 µM.

As to `O=C(CN1CCCc2ccccc21)N/N=C/c1c(O)ccc2ccccc12`, the AC50 is 2.7 µM.

For `COc1cc(CNc2ccc(CNc3ncn[nH]3)cc2)ccc1OCc1ccccc1`, the AC50 is 0.708 µM.

Regarding `O=C(Nc1ccccc1)C1=C[C@@H](c2csc3ccccc23)C[C@@H](OCc2ccc(CO)cc2)O1`, the AC50 is 4.11 µM.

Regarding `COc1ccc(Nc2nnc(-c3ccccc3)c3ccccc23)cc1C(=O)N1CCCCC1`, the AC50 is > 19.5 µM (inactive).

For `CCCCc1oc2ccccc2c1C(=O)c1cc(I)c(OCCN(CC)CC)c(I)c1`, the AC50 was 6.92 µM.

With `CCC1=NN(C(=O)c2ccc(Cl)cc2)C(O)(c2ccc(C)cc2)C1` (stereo not given), the AC50 was 7.99 µM.

In the case of `C[C@@H]1CN([C@H](C)CO)C(=O)c2cc(NC(=O)Nc3ccc(C(F)(F)F)cc3)ccc2O[C@H]1CN(C)S(=O)(=O)c1ccc(Cl)cc1`, the AC50 is 3.84 µM.

As for `Cc1ccnc2c1ccc1c(C)ccnc12`, the AC50 was 0.937 µM.

Regarding `CCN(CC)Cc1c(O)ccc2c1O/C(=C\C=C\c1ccccc1)C2=O`, the AC50 was 18.8 µM.

Regarding `Nc1[nH]n2c(=O)cc(-c3ccccc3)nc2c1N=Nc1ccccc1`, the AC50 was 13.3 µM.

Regarding `O=C(Nc1ccn(Cc2ccccc2F)n1)c1ccc(COc2ccccc2Cl)cc1`, the AC50 was 3.52 µM.

For the compound `Cc1cc(/C=C2\SC(=S)N(Cc3ccco3)C2=O)c(C)n1-c1ccccc1`, the AC50 was 2.92 µM.

Take `C[C@H](CO)N1C[C@H](C)[C@@H](CN(C)S(=O)(=O)c2ccccc2)Oc2ccc(NC(=O)Nc3ccc(C(F)(F)F)cc3)cc2C1=O`: the AC50 is 12.9 µM.

In the case of `COc1ccc(-c2nn(-c3ccccc3)cc2/C=N/N2C(=O)CSC2=S)cc1`, the AC50 was 3.97 µM.

Take `O=C(Nc1ccccc1)C1=C[C@@H](c2ccc(C(F)(F)F)cc2)C[C@@H](OCc2ccc(CO)cc2)O1`: the AC50 was 7.43 µM.

For `O=c1c2ccccc2nc(/C=C/c2ccccc2F)n1-c1ccccc1O`, the AC50 is 6.44 µM.

Regarding `Cc1ccc(C(C)C)c(OCc2ccc(C(=O)N/N=C/c3ccc(O)c(O)c3)cc2)c1`, the AC50 is 4.66 µM.

In the case of `Cn1nnnc1Sc1ncnc2scc(-c3cccc4c3sc3ccccc34)c12`, the AC50 was 1.65 µM.

For `O=C(Nc1cccc(Cl)c1)Nc1sccc1-c1nc2ccccc2s1`, the AC50 was > 19.5 µM (inactive).

As to `Cc1ccccc1CS(=O)(=O)c1ncc(Cl)c(C(=O)Nc2ccc(F)cc2)n1`, the AC50 is 4.11 µM.

As to `COc1ccc(S[C@@H](CCN2CC[C@H](NC(=O)OCc3ccccc3)CCC2=O)c2ccccc2)cc1`, the AC50 is 3.12 µM.

Regarding `CCc1ccc(S(=O)(=O)Nc2ccc(O)c3ccccc23)cc1`, the AC50 was 14.7 µM.

In the case of `CC(C)CC(NC(=O)C(NC(=O)C(Cc1ccc(OCc2ccccc2)cc1)NC(=O)OC(C)(C)C)C(C)C)C(N)=O` (stereo not drawn) (Boc-Tyr(Bn)-Val-Leu-NH2; configuration not given here), the AC50 is > 19.5 µM (inactive).

Turning to `CCCCN=C(NNc1ccc(Br)cc1)C(=O)OCC`, the AC50 was 3.99 µM.

On to `N#Cc1c(NC(=O)c2ccc(Cn3cc(Br)cn3)o2)sc2c1CCCCC2`, for which the AC50 was 13.4 µM.

`Cc1cccc(OCc2n(CC(=O)OC3CC(C)CCC3C(C)C)c3ccccc3[n+]2C)c1` (stereo not given): the AC50 was 3.47 µM.

For `CCN(CC(=O)Nc1ccc(NC(C)=O)cc1)C(=O)c1ccccc1CCc1ccccc1`, the AC50 is > 19.5 µM (inactive).

As to `CCCCCCCCCc1nc2sc3c(c2c(=O)n1NC(=O)c1ccccc1[N+](=O)[O-])CC(C)(C)OC3`, the AC50 was 1.21 µM.

On to `Oc1ccc(/C=N/Nc2ccc(C(F)(F)F)cn2)c(O)c1`, for which the AC50 was 6.58 µM.

For the compound `CC1=C(/C=C/C(C)=C/C=C/C(C)=C/C(=O)Nc2ccc(O)cc2)C(C)(C)CCC1`, the AC50 was 2.26 µM.

Consider `COc1ccc(OC)c(-c2cc(-c3cccnc3)nc(N)c2C#N)c1`, for which the AC50 is 1.95 µM.

Consider `O=[N+]([O-])c1cccc(C2NCC(c3ccccc3Cl)c3c2[nH]c2ccccc32)c1` (stereo not given), for which the AC50 is 6.75 µM.

As to `C=C[C@@H]1c2cc(C)ccc2N(S(=O)(=O)c2ccc(C)cc2)[C@H](c2ccc(OC(C)=O)cc2)C1(C#N)C#N`, the AC50 is 1.3 µM.

As for `Cc1cc(C)c2nc(NNC(=O)c3cc(-c4cccs4)nc4ccccc34)sc2c1`, the AC50 was 2.95 µM.

With `C/C(CC(=O)Nc1ccc(Cl)c(C(F)(F)F)c1)=N\NC(=O)c1cc2ccccc2cc1O`, the AC50 is 13.3 µM.

On to `O=C(Nc1ncc(Cc2cccc([N+](=O)[O-])c2)s1)c1ccco1`, for which the half-maximal activity concentration (AC50) is 1.44 µM.

On to `CN(C)CCNC(=O)COc1ccc(C23CC4CC(CC(C4)C2)C3)cc1`, for which the AC50 was 4.09 µM.

On to `O=C(Nc1ccc(Cl)c(C(F)(F)F)c1)NC1CC2CCCC(C1)N2Cc1ccccc1` (stereo not given), for which the AC50 is 6.8 µM.

Turning to `CC1=C(CO)C(=O)OC([C@@H](C)C2CC[C@H]3C4C[C@H]5O[C@]56[C@@H](O)C=CC(=O)[C@]6(C)C4CC[C@]23C)C1` (stereo not given in full), the AC50 is 1.62 µM.

Turning to `Cc1[nH]nc2c1C(c1ccc(-c3ccc(Cl)cc3)o1)C(C#N)=C(N)O2` (stereo not given), the AC50 is 7.25 µM.

In the case of `Cc1cc(C)cc(NC(=O)Nc2ccc(-n3ccc(C(F)(F)F)n3)cc2)c1`, the AC50 was 4.95 µM.

With `COc1ccc(C(CCNCc2ccc(OC(C)C)cc2)c2ccccc2OC)cc1` (stereo not given), the AC50 is 4.66 µM.

Consider `O=C(CN(c1cccc(C(F)(F)F)c1)S(=O)(=O)c1ccc(Cl)c([N+](=O)[O-])c1)NCc1ccc(F)cc1`, for which the AC50 was 3.26 µM.

In the case of `Cc1c(C2(O)CCCCC2)[nH]c2cc(C(F)(F)F)ccc12`, the AC50 is 5.83 µM.

For `Clc1ccc(/C=C/c2nc3ccccc3[nH]2)cc1`, the AC50 is 3.5 µM.

On to `COc1ccc(OC)c(-c2csc(N(CC3CCCO3)C(=O)C3CCCCC3)n2)c1` (stereo not given), for which the AC50 was 7.05 µM.

As to `O=C(NNc1ccccc1Br)C(=O)n1ccc2ccccc21`, the AC50 is 8.69 µM.

For the compound `COc1ccc(C2=NN(c3nc4ccccc4s3)C(=O)C2)cc1`, the AC50 was 4.7 µM.

Regarding `COCCN(C(=O)C(C)C)c1nnc(-c2ccc(C(C)(C)C)cc2)s1`, the AC50 was 3.06 µM.

For the compound `N#CCSc1nc2c(c(=O)n1Cc1ccco1)C1(CCCC1)Cc1ccccc1-2`, the AC50 was 0.468 µM.

For `O=C1/C(=C\c2cccnc2)CN(Cc2ccccc2)C/C1=C\c1cccnc1`, the half-maximal activity concentration (AC50) was 3.9 µM.

Take `Cc1cc(C2(c3ccc(O)c(C)c3)C(=O)Nc3ccccc32)ccc1O`: the AC50 is 7.1 µM.

`C=C(C)Cn1c(SCC(=O)N/N=C/c2c(O)ccc3ccccc23)nc2ccccc2c1=O`: the AC50 is 5.62 µM.

As for `CC(C)(C)[C@@H]1CCC(=O)N(CC[C@H](Sc2ccccc2)c2ccccc2)CC1`, the AC50 is 3.95 µM.

For `Oc1ccc(-c2cnc(-c3ccc(O)cc3)nc2)cc1`, the AC50 was 0.304 µM.

As for `O=C(C[C@@H]1C/C=C/CC[C@H](Cc2ccc(F)cc2)C(=O)OC[C@@H](Cc2ccccc2)NC1=O)N[C@H](CO)Cc1ccccc1`, the AC50 is 1.56 µM.

Consider `c1cc(SC2CCCCC2)cc(-c2nc3cnccn3c2NC2CCCCC2)c1`, for which the AC50 is 1.78 µM.

Take `COc1ccc(C2NCCc3c2[nH]c2ccccc32)cc1COc1ccc(F)cc1` (stereo not given): the AC50 was 7.34 µM.

Consider `COc1cc2cnc(-c3ccccc3)c(-c3cccc(C(F)(F)F)c3)c2cc1OC`, for which the AC50 was 6.67 µM.

Regarding `O=C(NCc1cccnc1)c1ccc(NC(=O)c2ccc(Br)cc2)cc1`, the AC50 was 3.11 µM.

Turning to `O=C(c1ccco1)c1nnn(Cc2ccccc2)c1-c1ccccc1`, the AC50 is 6.47 µM.

As to `Cc1cc(N2C(=O)C=CC2=O)c([N+](=O)[O-])cc1C`, the AC50 is 5.88 µM.

For the compound `CN1CCN(/N=C/c2ccc(N(c3ccccc3)c3ccccc3)cc2)CC1`, the AC50 was 6.89 µM.

For the compound `CC(C)N1CCN(Cc2ccc(OCc3ccccc3)cc2)CC1CCO` (stereo not given), the AC50 was 11.5 µM.

On to `CCN(CC)S(=O)(=O)c1ccc(N/N=C/c2cc(OC)ccc2O)nc1`, for which the AC50 is 3.85 µM.

Regarding `CCCCCCc1cc2cc(S(=O)(=O)c3ccc(C)cc3)c(=O)oc2cc1O`, the AC50 is 2.43 µM.

`Clc1ccc(CO/N=C/c2c(-c3ccccc3)nc3n2CCS3)c(Cl)c1`: the AC50 was 4.62 µM.

Turning to `CC1(C)C=C2[C@H]3CC[C@@H]4[C@@]5(C)CCC(=O)C(C)(C)[C@@H]5CC[C@@]4(C)[C@]3(C)CC[C@@]2(C(=O)O)CC1`, the concentration at half-maximal activity (AC50) is 3.58 µM.

On to `O=C(NCCCSc1ccccc1)c1cc(Br)ccc1O`, for which the AC50 was 5.85 µM.

Turning to `CNc1ccccc1C(C)(C)c1cc(-c2cc(C)cc(C)c2)no1`, the AC50 was 18.4 µM.

Take `COc1ccc(-c2sc3ccc(N4CCOCC4)cc3c2C#CCCO)cc1`: the AC50 was 4.73 µM.

With `Fc1ccc(NC(=S)Nc2cc(-c3ccccc3)[nH]n2)cc1Cl`, the AC50 was 3.46 µM.

With `O=c1[nH]c(NNC(=S)NCc2ccccc2)nc2c1C1(CCCCC1)Cc1ccccc1-2`, the AC50 is 3.91 µM.

On to `CC(C)c1ccc(/C=C/C(=O)NC2=NCCS2)cc1`, for which the AC50 was > 19.5 µM (inactive).

For the compound `O=C(CCC1CCCC1)Nc1ccc(C(=O)NCc2cccnc2)cc1`, the AC50 was 1.04 µM.

`COc1ccc(-c2cc(C(=O)N3CC4(C)CC3CC(C)(C)C4)no2)cc1OC` (stereo not given): the AC50 was 10.6 µM.
